Measurements from patent publication US20190201586A1, “Three-Dimensional Tissue Matrix Scaffold System” (Washington State University, priority 2016, published 2019).

Legend:
Format in all cases: cell-based
T47D breast cancer cells = assay: CCK-8 proliferation assay and drug screening, T47D cells in 2D culture and on 3D scaffolds; settings: 1 μM; for cell proliferation after administration of the drug: on day 7, 9, 11, 13, 3D and 2D cultures; for response of the cancer cells to the drug in cell-laden TMS cultures compared to the other 3D culture conditions: TMS vs collagen, IrECM, PLGA scaffolds
Description: (§1) Proliferation assay in 3D culture. The proliferation of the cells grown on the different scaffolds or treated with the different drugs was measured using the CCK-8 reagent at the time points indicated. Briefly, the cell-laden scaffolds (triplicates for each condition) were cultured in 96-well plates. CCK-8 solution was added at a 1:10 dilution into the cultures. The colorimetric absorbance of the supernatants of the cultures that reflects the cell proliferation rate was measured at 490 nm using a Synergy 2 microplate reader (BioTek) after 4 hours of incubation (37° C., 5% CO2). Error bars represent standard deviations (s.d.) of the means of three independent experiments.
(§2) Drug screening. The T47D and BT474 breast cancer cells were used to test the efficacies of the two anticancer drugs, HT and Taxol, in 2D and 3D cultures. 2×10^3 cells/well and 1×10^5 cells/scaffold (in triplicates) were seeded on 2D surface and the 3D scaffolds, respectively, and cultured in 96-well plates for 7 days. The drugs at the final concentration of 1 μM were administered separately to the cultures on day 7, 9, 11, 13 of culture for 24 hours, and cell survival as well as proliferation status assessed on day 1, 8, 10, 12, 14, 21 using the CCK-8 reagent and the Live/Dead assay, respectively. After the measurement on day 14, a seven-day recovering period was included to evaluate the post-treatment proliferation potential of the cells. Three independent experiments were performed for statistical significance.

[1] = tested on: BT474 breast cancer cells; assay: CCK-8 proliferation assay and drug screening, BT474 cells in 2D culture and on 3D scaffolds; settings: 1 μM; for cell proliferation after administration of the drug: on day 7, 9, 11, 13, 3D and 2D cultures; for response of the cancer cells to the drug in cell-laden TMS cultures compared to the other 3D culture conditions: TMS vs collagen, IrECM, PLGA scaffolds
Description: as §1, §2

T47D cells = assay: Live/Dead Cell staining of scaffold cultures after drug treatment; settings: T47D-laden DBT-TMS and PLGA scaffolds; 1 μM
Description: Live/Dead Cell staining. The survival of the cells grown on the 3D scaffolds were assessed using the Live/Dead Cell Staining kit. The cell-carrying scaffolds at different time points or under different treatment conditions were collected and manually sectioned at 250-500 μm of thickness. The sections were washed twice with 1×PBS (37° C.), incubated in the staining solution (2 μM of calcein-AM and 4 μM of EhtD-III in 1×PBS) at RT for 45 minutes, and imaged using fluorescence microscopy. Calcein-AM stains live cells green (under EGFP filter), while EthD-III stains dead cells red (under Texas Red filter).
as §2, with “Three independent experiments were performed for statistical significance.” left out

SMILES | cell proliferation after administration of the drug (T47D breast cancer cells) | response of the cancer cells to the drug in cell-laden TMS cultures compared to the other 3D culture conditions (T47D breast cancer cells) | cell proliferation after administration of the drug [1] | response of the cancer cells to the drug in cell-laden TMS cultures compared to the other 3D culture conditions [1] | cell proliferation and clustering over the period of treatment (Live/Dead staining) (T47D cells)
CC(=O)O[C@H]1C(=O)[C@@]2(C)[C@H]([C@H](OC(=O)c3ccccc3)[C@]3(O)C[C@H](OC(=O)[C@H](O)[C@@H](NC(=O)c4ccccc4)c4ccccc4)C(C)=C1C3(C)C)[C@]1(OC(C)=O)CO[C@@H]1C[C@@H]2O [Taxol, Paclitaxel] | time-dependently inhibited cell proliferation | lower response | time-dependently inhibited cell proliferation | lower response | markedly attenuated
CC/C(=C(\c1ccc(O)cc1)c1ccc(OCCN(C)C)cc1)c1ccccc1 [HT, (Z)-4-Hydroxytamoxifen] | time-dependently inhibited cell proliferation | lower response | time-dependently inhibited cell proliferation | lower response | markedly attenuated
